# Measurements published in patent US10196393B2, “JAK inhibitors containing a 4-membered heterocyclic amide” (THERAVANCE BIOPHARMA R&D IP, LLC, priority 2017, dated 2019).
# How the values were obtained:
# [1] = system: IL-13 induced STAT6 phosphorylation in BEAS-2B human lung epithelial cells; assay: Cellular JAKI potency assay (AlphaScreen), BEAS-2B; type: cell-based; conditions: Homo sapiens, BEAS-2B cells
# Protocol: Assay 2: Cellular JAKI Potency Assay
# The AlphaScreen JAKI cellular potency assay was carried out by measuring interleukin-13 (IL-13, R&D Systems) induced STAT6 phosphorylation in BEAS-2B human lung epithelial cells (ATCC). The anti-STAT6 antibody (Cell Signaling Technologies) was conjugated to AlphaScreen acceptor beads (Perkin Elmer), while the anti-pSTAT6 (pTyr641) antibody (Cell Signaling Technologies) was biotinylated using EZ-Link Sulfo-NHS-Biotin (Thermo Scientific).
# BEAS-2B cells were grown at 37° C. in a 5% CO2 humidified incubator in 50% DMEM/50% F-12 medium (Life Technologies) supplemented with 10% FBS (Hyclone), 100 U/mL penicillin, 100 μg/mL streptomycin (Life Technologies), and 2 mM GlutaMAX (Life Technologies). On day 1 of the assay, cells were seeded at a 7,500 cells/well density in white poly-D-lysine-coated 384-well plates (Corning) with 25 μL medium, and were allowed to adhere overnight in the incubator. On day 2 of the assay, the medium was removed and replaced with 12 μL of assay buffer (Hank's Balanced Salt Solution/HBSS, 25 mM HEPES, and 1 mg/ml bovine serum albumin/BSA) containing dose-responses of test compounds. Compounds were serially diluted in DMSO and then diluted another 1000-fold in media to bring the final DMSO concentration to 0.1%. Cells were incubated with test compounds at 37° C. for 1 h, and followed by the addition of 12 μl of pre-warmed IL-13 (80 ng/mL in assay buffer) for stimulation. After incubating at 37° C. for 30 min, the assay buffer (containing compound and IL-13) was removed, and 10 μL of cell lysis buffer (25 mM HEPES, 0.1% SDS, 1% NP-40, 5 mM MgCl2, 1.3 mM EDTA, 1 mM EGTA, and supplement with Complete Ultra mini protease inhibitors and PhosSTOP from Roche Diagnostics). The plates were shaken at ambient temperature for 30 min before the addition of detection reagents. A mixture of biotin-anti-pSTAT6 and anti-STAT6 conjugated acceptor beads was added first and incubated at ambient temperature for 2 h, followed by the addition of streptavidin conjugated donor beads (Perkin Elmer). After a minimum of 2 h incubation, the assay plates were read on the EnVision plate reader. AlphaScreen luminescence signals were recorded and utilized to calculate the percent inhibition values based on DMSO and background controls.
# For dose-response analysis, percent inhibition data were plotted vs. compound concentrations, and IC50 values were determined from a 4-parameter robust fit model with the Prism software. Results may also be expressed as the negative logarithm of the IC50 value, pIC50.
# Test compounds having a lower IC50 value or higher pIC50 value in this assay show greater inhibition of IL-13 induced STAT6 phosphorylation.
# [2] = Pharmacokinetics in plasma and lung in mouse; conditions: oral aspiration, 0.2 mg/mL 50 μL, lung AUC (μg hr/g) / plasma AUC (μg hr/mL)
# JAK3 = JAK3 (Homo sapiens (Human), UniProt P52333); assay: Biochemical JAK kinase assay (LanthaScreen), JAK3; conditions: converted from pIC50 with Cheng-Prusoff equation
# Protocol: (§1) Assay 1: Biochemical JAK Kinase Assays
# (§2) A panel of four LanthaScreen JAK biochemical assays (JAK1, 2, 3 and Tyk2) were carried in a common kinase reaction buffer (50 mM HEPES, pH 7.5, 0.01% Brij-35, 10 mM MgCl2, and 1 mM EGTA). Recombinant GST-tagged JAK enzymes and a GFP-tagged STAT1 peptide substrate were obtained from Life Technologies.
# (§3) Serially diluted compounds were pre-incubated with each of the four JAK enzymes and the substrate in white 384-well microplates (Corning) at ambient temperature for 1 h. ATP was subsequently added to initiate the kinase reactions in 10 μL total volume, with 1% DMSO. […] The plates were allowed to incubate at ambient temperature for 1 h before being read on the EnVision reader (Perkin Elmer).
# (§4) For dose-response analysis, percent inhibition data were plotted vs. compound concentrations, and IC50 values were determined from a 4-parameter robust fit model with the Prism software (GraphPad Software). Results were expressed as pIC50 (negative logarithm of IC50) and subsequently converted to pKi (negative logarithm of dissociation constant, Ki) using the Cheng-Prusoff equation.
# JAK1 = JAK1 (Homo sapiens (Human), UniProt P23458); assay: Biochemical JAK kinase assay (LanthaScreen), JAK1; conditions: converted from pIC50 with Cheng-Prusoff equation
# Protocol: as §1, §2, §3, §4
# [3] = system: IL-13 induced pSTAT6 induction in lung tissue; assay: Murine model of IL-13 induced pSTAT6 induction in lung tissue; type: in vivo; conditions: mouse lung, 1 mg/mL 50 μL oral aspiration, IL-13 challenge 4 h after dose, lungs at 5 hours
# Description: Assay 4: Murine (Mouse) Model of IL-13 Induced pSTAT6 Induction in Lung Tissue
# Il-13 is an important cytokine underlying the pathophysiology of asthma (Kudlacz et al. Eur. J. Pharmacol, 2008, 582,154-161). IL-13 binds to cell surface receptors activating members of the Janus family of kinases (JAK) which then phosphorylate STAT6 and subsequently activates further transcription pathways. In the described model, a dose of IL-13 was delivered locally into the lungs of mice to induce the phosphorylation of STAT6 (pSTAT6) which is then measured as the endpoint.
# Adult balb/c mice from Harlan were used in the assay. On the day of study, animals were lightly anesthetized with isoflurane and administered either vehicle or test compound (1 mg/mL, 50 μL total volume over several breaths) via oral aspiration. Animals were placed in lateral recumbency post dose and monitored for full recovery from anesthesia before being returned to their home cage. Four hours later, animals were once again briefly anesthetized and challenged with either vehicle or IL-13 (0.03 μg total dose delivered, 50 μL total volume) via oral aspiration before being monitored for recovery from anesthesia and returned to their home cage. One hour after vehicle or IL-13 administration, lungs were collected for both pSTAT6 detection using an anti-pSTAT6 ELISA (rabbit mAb capture/coating antibody; mouse mAb detection/report antibody: anti-pSTAT6-pY641; secondary antibody: anti-mouse IgG-HRP) and analyzed for total drug concentration as described above in Assay 3.
# Selected compounds of the invention were tested in the assay. Activity in the model is evidenced by a decrease in the level of pSTAT6 present in the lungs of treated animals at 5 hours compared to the vehicle treated, IL-13 challenged control animals. The difference between the control animals which were vehicle-treated, IL-13 challenged and the control animals which were vehicle-treated, vehicle challenged dictated the 0% and 100% inhibitory effect, respectively, in any given experiment.
# [4] = system: Alternaria alternata-induced eosinophilic inflammation of the lung (BALF eosinophils); assay: Murine model of Alternaria alternata-induced eosinophilic inflammation of the lung; type: in vivo; conditions: mouse, oropharyngeal aspiration 0.03-1.0 mg/mL, BALF 48 h after challenge; maximum statistically significant inhibition
# Description: Assay 5: Murine Model of Alternaria alternata-Induced Eosinophilic Inflammation of the Lung
# Airway eosinophilia is a hallmark of human asthma. Alternaria alternata is a fungal aeroallergen that can exacerbate asthma in humans and induces eosinophilic inflammation in the lungs of mice (Havaux et al. Clin Exp Immunol. 2005 February; 139(2):179-88).
# Seven- to nine-week old male C57 mice from Taconic were used in the study. On the day of study, animals were lightly anesthetized with isoflurane and administered either vehicle or test compound (0.03-1.0 mg/mL, 50 μL total volume over several breaths) via oropharyngeal aspiration. Animals were placed in lateral recumbency post dose and monitored for full recovery from anesthesia before being returned to their home cage. One hour later, animals were once again briefly anesthetized and challenged with either vehicle or alternaria extract (200 ug total extract delivered, 50 μL total volume) via oropharyngeal aspiration before being monitored for recovery from anesthesia and returned to their home cage. Forty-eight hours after alternaria administration, bronchoalveolar lavage fluid (BALF) was collected and eosinophils were counted in the BALF using the Advia 120 Hematology System (Siemens). […]
# Sequence of JAK3 (P52333 whole entry): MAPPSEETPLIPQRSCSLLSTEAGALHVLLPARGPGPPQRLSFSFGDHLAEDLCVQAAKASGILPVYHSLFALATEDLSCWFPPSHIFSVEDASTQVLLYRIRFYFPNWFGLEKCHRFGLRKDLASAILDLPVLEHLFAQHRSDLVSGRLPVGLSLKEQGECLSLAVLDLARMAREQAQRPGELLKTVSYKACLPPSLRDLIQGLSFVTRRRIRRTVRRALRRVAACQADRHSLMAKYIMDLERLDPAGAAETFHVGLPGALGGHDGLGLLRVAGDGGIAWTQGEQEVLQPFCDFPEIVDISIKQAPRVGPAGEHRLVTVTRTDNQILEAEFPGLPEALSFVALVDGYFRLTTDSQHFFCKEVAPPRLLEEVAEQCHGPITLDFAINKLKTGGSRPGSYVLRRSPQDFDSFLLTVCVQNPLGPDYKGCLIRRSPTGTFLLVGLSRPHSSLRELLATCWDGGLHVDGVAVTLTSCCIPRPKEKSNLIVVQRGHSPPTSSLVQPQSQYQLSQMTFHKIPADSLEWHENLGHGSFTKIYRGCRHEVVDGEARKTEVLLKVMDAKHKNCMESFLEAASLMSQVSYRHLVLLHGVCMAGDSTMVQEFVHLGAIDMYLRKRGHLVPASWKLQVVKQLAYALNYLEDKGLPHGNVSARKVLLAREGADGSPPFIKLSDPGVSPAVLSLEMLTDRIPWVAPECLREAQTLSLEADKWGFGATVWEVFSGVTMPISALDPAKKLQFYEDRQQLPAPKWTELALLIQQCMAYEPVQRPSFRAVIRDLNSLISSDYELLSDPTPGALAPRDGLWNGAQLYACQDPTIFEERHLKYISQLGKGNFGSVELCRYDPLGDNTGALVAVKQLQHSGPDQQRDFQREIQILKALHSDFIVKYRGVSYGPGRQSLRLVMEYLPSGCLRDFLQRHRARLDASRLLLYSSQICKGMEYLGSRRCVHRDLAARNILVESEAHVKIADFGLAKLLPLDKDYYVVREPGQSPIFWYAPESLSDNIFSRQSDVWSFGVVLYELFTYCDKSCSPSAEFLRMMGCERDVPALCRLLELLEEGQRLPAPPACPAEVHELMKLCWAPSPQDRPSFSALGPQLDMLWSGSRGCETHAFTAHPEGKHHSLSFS
# Sequence of JAK1 (P23458 whole entry): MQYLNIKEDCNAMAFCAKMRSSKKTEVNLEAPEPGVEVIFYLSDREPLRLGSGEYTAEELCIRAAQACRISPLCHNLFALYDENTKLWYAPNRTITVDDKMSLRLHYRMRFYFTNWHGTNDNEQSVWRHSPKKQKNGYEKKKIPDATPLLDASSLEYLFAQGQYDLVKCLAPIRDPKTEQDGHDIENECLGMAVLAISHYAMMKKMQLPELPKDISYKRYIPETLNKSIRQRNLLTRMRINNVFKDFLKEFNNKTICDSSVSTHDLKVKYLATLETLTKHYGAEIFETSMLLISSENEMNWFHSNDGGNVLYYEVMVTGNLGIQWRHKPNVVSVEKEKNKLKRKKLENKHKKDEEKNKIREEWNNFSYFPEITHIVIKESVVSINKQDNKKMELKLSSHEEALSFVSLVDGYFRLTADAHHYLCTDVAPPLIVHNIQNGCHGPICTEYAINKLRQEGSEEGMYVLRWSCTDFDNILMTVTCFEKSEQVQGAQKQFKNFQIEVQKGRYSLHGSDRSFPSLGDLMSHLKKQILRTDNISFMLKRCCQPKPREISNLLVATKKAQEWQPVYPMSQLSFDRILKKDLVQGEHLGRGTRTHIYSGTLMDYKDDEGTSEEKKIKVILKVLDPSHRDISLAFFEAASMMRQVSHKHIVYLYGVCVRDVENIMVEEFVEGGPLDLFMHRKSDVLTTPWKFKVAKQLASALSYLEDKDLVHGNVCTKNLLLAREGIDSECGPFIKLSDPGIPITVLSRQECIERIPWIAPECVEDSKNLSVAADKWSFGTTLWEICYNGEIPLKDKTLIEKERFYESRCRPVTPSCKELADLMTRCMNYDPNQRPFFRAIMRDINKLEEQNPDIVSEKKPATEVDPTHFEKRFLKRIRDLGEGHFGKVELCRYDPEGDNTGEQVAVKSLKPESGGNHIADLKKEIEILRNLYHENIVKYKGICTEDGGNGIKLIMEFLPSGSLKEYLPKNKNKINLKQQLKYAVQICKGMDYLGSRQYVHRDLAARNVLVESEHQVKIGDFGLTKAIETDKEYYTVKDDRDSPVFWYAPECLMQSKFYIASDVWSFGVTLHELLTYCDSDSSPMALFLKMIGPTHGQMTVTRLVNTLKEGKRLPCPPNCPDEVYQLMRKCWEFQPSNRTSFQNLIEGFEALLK
compound,measurement,setting,value
"CCCN1Cc2[nH]c(-c3n[nH]c4cc(-c5cc(F)c(O)cc5CC)ccc34)nc2C[C@H]1C(=O)N1CC(N(C)C)C1 [Example 4, (S)-(3-(dimethylamino)azetidin-1-yl)(2-(6-(2-ethyl-5-fluoro-4-hydroxyphenyl)-1H-indazol-3-yl)-5-propyl-4,5,6,7-tetrahydro-3H-imidazo[4,5-c]pyridin-6-yl)methanone]",IC50,[1],7400 pM
same,Lung to Plasma ratio Assay 3,[2],C (C denotes a ratio between 20 and 50)
same,Ki,JAK3,130 pM
same,Ki,JAK1,60 pM
same,pSTAT6 inhibition Assay 4,[3],A (A represents between 60% and 80% inhibition)
same,Percent Inhibition of Alternaria-induced BALF Eosinophils,[4],79%
